Here are results for eight compounds from article PMC3063246, “Corticotropin Releasing Factor-Induced CREB Activation in Striatal Neurons Occurs via a Novel Gβγ Signaling Pathway” (PLoS ONE, 2011).

Entries after “also recorded” stand apart in the source; their conditions may differ.

For experiment [1], the system named is CRF-induced CREB phosphorylation in striatal neurons. The experiment can be described thus: Block of CRF-induced CREB phosphorylation. Conditions: 30 min prior and concurrently, CRF 15 min. The experiment is classed as cell-based, rat.
The test system of the next experiment is Akt/PKB. Particulars: cited from earlier work. From the text:
(§1) Supplement pone.0018114.s002.xlsx, sheet "Sheet1" | column: Target (notes)

For experiment [2], the system named is mGluR1/5 mediated calcium transienst. Particulars: 5 mM as printed; ref unpublished observations; cited from earlier work.
From the text: as §1

The subject of experiment [3] is ISO-induced CREB phosphorylation in striatal neurons. More on the design: dose or concentration left out as unconfirmed. Particulars: ref unpublished observations; cited from earlier work.
From the text: as §1

The next experiment deals with PKA. Conditions: cited from earlier work.
From the text: as §1

Another experiment has as its system PKB. Conditions: cited from earlier work.
From the text: as §1

A further experiment deals with MAPKAP. Particulars: cited from earlier work.
From the text: as §1

For the next experiment, the system named is ROCK-II. Conditions: cited from earlier work.
From the text: as §1

The test system of experiment [4] is forskolin (FSK)-induced CREB phosphorylation. The experiment can be described thus: Block of forskolin-induced CREB phosphorylation. The experiment is classed as cell-based, rat. Particulars: H89 2 µM; forskolin 25 µM. Here is the method:
(§2) Protocols followed are those described previously, using a well-characterized commercially available monoclonal antibody directed against the Ser133 phosphorylated version of CREB (see below), [66], [70]–[72]. Briefly, cultured striatal neurons (8–10 d.i.v.) were incubated in a Tyrode's solution containing TTX (1 µM) and AP-5 (25 µM) at room temperature for 1.5 hr. Unless noted otherwise, cell stimulations were performed as follows: vehicle (15 min); agonist stimulations were 15 min, antagonist exposure was 30 min prior to agonist stimulation, except PTX and CTX (18 hr pre-treatment), and concurrently with agonist stimulation. […] Data were quantified with Leica LAS AF (version 1.9.0; Leica).
(§3) The confocal excitation and detection settings for each experiment were determined using coverslips stimulated for 5 min with 60 mM potassium (60 K) to establish a “ceiling” for pCREB intensity. A baseline was determined via the vehicle (NS) group, so that each assay has an internal control. […] Neurons were readily discriminated from glia via size and morphology (see Figure 1 and Figure S1) and selected randomly using α-tubulin or MAP2 fluorescence, allowing the experimenter to remain blind to the CREB or pCREB signal. […] To analyze pCREB fluorescence intensity, the α-tubulin or MAP2 staining was used to draw a region of interested (ROI) of interest outlining the nucleus of each neuron. […]

The test system of experiment [5] is BDNF-induced NFAT activation. Particulars: 100 nM; cited from earlier work.
From the text: as §1

The subject of a further experiment is Ras. Particulars: cited from earlier work.
From the text: as §1

The next experiment deals with PI3K. Conditions: cited from earlier work.
From the text: as §1

In experiment [6] the test system is ISO-induced CREB phosphorylation in striatal neurons. The experiment can be described thus: Block of isoproterenol-induced CREB phosphorylation. The experiment is classed as cell-based, rat. Conditions: gallein 75 µM; ISO 10 µM. Here is the method: as §2, §3
Another experiment deals with Rac1. Set-up: dose or concentration left out as unconfirmed. Particulars: cited from earlier work.
From the text: as §1

In experiment [7] the test system is CREB phosphorylation in cultured striatal neurons. It is filed as cell-based, rat.
In the next experiment the test system is CRFR1. Set-up: method as in 5 sources, ref 26 = [26]; PMID 9918582; 26 Perrin MH Sutton SW Cervini LA Rivier JE Vale WW 1999 Comparison of an agonist, urocortin, and an antagonist, astressin, as radioligands for characterization of corticotropin-releasing factor recep ||| ref [73] (a number printed in a supplementary file, which may have a reference list of its own: not looked up in the article's list) ||| ref [74] (a number printed in a supplementary file, which may have a reference list of its own: not looked up in the article's list) ||| ref [75] (a number printed in a supplementary file, which may have a reference list of its own: not looked up in the article's list) ||| ref [76] (a number printed in a supplementary file, which may have a reference list of its own: not looked up in the article's list). Particulars: cited from earlier work.

For experiment [8], the system named is rewarding effects of drugs of abuse / sucrose reward. Particulars: cited from earlier work. From the text:
Human individuals with a history of chronic stress are more likely to become addicts, and previously abstinent addicts are more likely to relapse following exposure to an acute stressor [1]–[3]. […] And while research thus far has focused on the NAc, CRF neurotransmission is also an essential component to connectivity in the dorsal striatum [19]–[22].

Experiment [9] has as its system CREB in cerebellar and hippocampal neurons. Conditions: cited from earlier work. From the text: Separate from CREB/MAPK signaling, CRF also affects the activity of various other kinases, second messengers, ion channels and neurotransmitter receptors [45]–[51]. This diversity in cellular effects is not surprising when one considers the ability of CRF ...
Experiment [10] concerns cAMP in cultured striatal neurons. The experiment in a line: cAMP assay (Parameter cAMP kit) in cultured striatal neurons. The experiment is classed as cell-based, rat. Particulars: IBMX 75 µM.
For experiment [11], the system named is total CREB in cultured striatal neurons. The experiment in a line: Immunocytochemistry of total CREB. The experiment is classed as cell-based, rat. Particulars: CRF 40 nM, 15 min, vs vehicle; P = 0.67, Student's two-tailed T-test.

By IC50 is commonly meant the concentration that gives 50% inhibition. Regarding `CCN(CC)CCCCN1c2ccccc2Oc2ccc(Cl)cc21` [10-DEBC], the “effect on CRF-induced CREB phosphorylation” value in [1] (inhibitor 5 µM) is “failed to affect CRF-induced CREB phosphorylation”. In addition, the IC50 in the experiment on Akt/PKB is 2 to 6 µM.

Turning to `CC(=O)OCOC(=O)CN(CC(=O)OCOC(C)=O)c1ccccc1OCCOc1ccccc1N(CC(=O)OCOC(C)=O)CC(=O)OCOC(C)=O` [BAPTA-AM], the “effect on CRF-induced CREB phosphorylation” value in experiment [1] (inhibitor 5 µM) is reported as “failed to block CRF-induced CREB phosphorylation; also recorded: not affected”. For the same compound, the “effect on mGluR1/5 mediated calcium transients” value in experiment [2] was “Calcium (5 mM prevents mGluR1/5 mediated calcium transienst)”.

Turning to `O=C1Nc2ccc(I)cc2/C1=C/c1cc(Br)c(O)c(Br)c1` [GW5074], the “effect on CRF-induced CREB phosphorylation” value in experiment [1] (inhibitor 1 µM, data not shown) is on record as “failed to affect CRF-induced CREB phosphorylation”. Moreover, in [3], the “effect on ISO-induced pCREB in striatal neurons” value is recorded as “c-Raf (1 mM blocks ISO-induced pCREB in striatal neurons)”.

With `O=S(=O)(NCCNC/C=C/c1ccc(Br)cc1)c1cccc2cnccc12` [H89], the “effect on CRF-induced CREB phosphorylation” value in experiment [1] (inhibitor 2 µM) is given as “failed to block CRF-induced CREB phosphorylation”. Moreover, the IC50 in the experiment on PKA is 0.135 µM; in the experiment with PKB, […]; with MAPKAP, […]; in the experiment with ROCK-II it was […]. In experiment [4], the “effect on forskolin-induced CREB phosphorylation” value is given as “attenuated forskolin (FSK)-induced CREB phosphorylation”.

In the case of `COC(=O)[C@@]1(O)C[C@H]2O[C@]1(C)n1c3ccccc3c3c4c(c5c6ccccc6n2c5c31)C(=O)NC4` [K252a], the “effect on CRF-induced CREB phosphorylation” value in [1] (inhibitor 100 nM) is on record as “failed to affect CRF-induced CREB phosphorylation”. Moreover, in experiment [5], the “effect on BDNF-induced NFAT activation” value is given as “Tyrosine Kinase (100 nM prevents BDNF-induced NFAT activation)”.

`Cc1cc(C(=O)N2CCN(c3cccc(Cl)c3)CC2)n(-c2ccccc2)n1` [XRP44X]: the “effect on CRF-induced CREB phosphorylation” value in experiment [1] (inhibitor 2 µM) was “failed to affect CRF-induced CREB phosphorylation”. In addition, the IC50 in the experiment on Ras is 0.01 to 0.02 µM.

On to `O=C1OC2(c3ccccc31)c1ccc(O)c(O)c1Oc1c2ccc(O)c1O` [gallein], for which the “effect on CRF-induced CREB phosphorylation” value in experiment [1] (inhibitor 75 µM) is recorded as “CRF failed to induce CREB phosphorylation in the presence of this drug; also recorded: eliminated CRF-induced CREB phosphorylation”. For the same compound, the PI3K inhibition result in the experiment with PI3K is “inhibits PI3K”. For the same compound, the “effect on ISO-induced CREB phosphorylation” value in experiment [6] is “should not affect ISO-dependent CREB phosphorylation. Indeed, this was in fact the case; also recorded: had no effect on CREB phosphorylation”. Moreover, the Rac1 activation inhibition result with Rac1 was “inhibits PI3K and Rac1 activation”.

A word on the EC50: it is the concentration that produces a half-maximal response. Take corticotropin releasing factor [CRF]: the “time constant τ of CRF-induced CREB phosphorylation” value in experiment [7] (40 nM CRF, time course) is recorded as approximately 3.5 min. Further, the CREB phosphorylation result in experiment [7] (CRF 40 nM, 15 min, vs vehicle (NS), p<0.0001, ~25 cells per group) is listed as “significantly increased CREB phosphorylation; also recorded: exhibited increased CREB phosphorylation”. Besides, the “share of striatal neurons with shift in pCREB fluorescence intensity” value in experiment [7] (CRF 40 nM, 15 min, cumulative histogram) is “approximately 80%”. Also, the “effect of extended exposure on CREB phosphorylation” value in [7] (CRF 40 nM, 1 hr) is “apparent desensitization”. Also, the “CREB phosphorylation, NAc enriched culture” value in experiment [7] (NAc "enriched" cultures, data not shown) is on record as “similarly robust increases in CREB phosphorylation”. In experiment [7] (cultured striatal neurons from 1- to 2-day old rat pups, 8-10 d.i.v., nuclear pCREB (Ser133) immunofluorescence, 15 min, nonlinear curve fit), this compound showed an EC50 of 0.0003 µM. Also, the “CREB phosphorylation, dorsal striatum enriched culture” value in experiment [7] (dorsal striatum "enriched" cultures, data not shown) is recorded as “similarly robust increases in CREB phosphorylation”. In addition, the “CREB phosphorylation in mCherry-transfected neurons” value in experiment [7] (neurons transfected with mCherry alone) is on record as “robust CRF-induced CREB phosphorylation”. The “binding affinity of CRF for CRFR1” value with CRFR1 is 5 to 10 nM. Further, the “effect on incentive salience of a sucrose reward” value in experiment [8] (CRF acting in NAc) was “enhances the incentive salience of a sucrose reward”. Further, the “effect on rewarding effects of drugs of abuse” value in experiment [8] was “potentiate the rewarding effects of drugs of abuse”. In addition, in experiment [9], the CREB activation result was “activate CREB”. Besides, the cAMP concentration result in [10] (CRF 40 nM, time course of pCREB) was “failed to induce any measurable increase in cAMP concentration”. Moreover, in experiment [10] (CRF 4 µM, 15 min, MβCD 10 mM), the “cAMP formation in the presence of MβCD” value is given as “increased cAMP concentrations; also recorded: significant increase in cAMP formation” and the “cAMP formation in the presence of MβCD relative to isoproterenol” value was “not to the levels seen with isoproterenol”. Also, the cAMP accumulation entry in experiment [10] (CRF, various concentrations up to and including 400 nM, 15 min) is listed as “failed to increase cAMP accumulation; also recorded: failed to induce a significant accumulation of cAMP”. Moreover, in [11], the “total CREB staining” value was “had no effect on total CREB staining; also recorded: showed no change in total CREB staining”.
